Results reported in publication PMC10367051, “Comprehensive Mechanistic View of the Hydrolysis of Oxadiazole-Based Inhibitors by Histone Deacetylase 6 (HDAC6)” (ACS Chemical Biology, 2023).

Biological target: T1, HDAC7 (Homo sapiens, UniProt Q8WUI4)
T1 construct: TwinStrep-FLAG-HALO (N, cleaved yes); made in house; host or cells: HEK293/T17
T1 sequence (Q8WUI4 1-952): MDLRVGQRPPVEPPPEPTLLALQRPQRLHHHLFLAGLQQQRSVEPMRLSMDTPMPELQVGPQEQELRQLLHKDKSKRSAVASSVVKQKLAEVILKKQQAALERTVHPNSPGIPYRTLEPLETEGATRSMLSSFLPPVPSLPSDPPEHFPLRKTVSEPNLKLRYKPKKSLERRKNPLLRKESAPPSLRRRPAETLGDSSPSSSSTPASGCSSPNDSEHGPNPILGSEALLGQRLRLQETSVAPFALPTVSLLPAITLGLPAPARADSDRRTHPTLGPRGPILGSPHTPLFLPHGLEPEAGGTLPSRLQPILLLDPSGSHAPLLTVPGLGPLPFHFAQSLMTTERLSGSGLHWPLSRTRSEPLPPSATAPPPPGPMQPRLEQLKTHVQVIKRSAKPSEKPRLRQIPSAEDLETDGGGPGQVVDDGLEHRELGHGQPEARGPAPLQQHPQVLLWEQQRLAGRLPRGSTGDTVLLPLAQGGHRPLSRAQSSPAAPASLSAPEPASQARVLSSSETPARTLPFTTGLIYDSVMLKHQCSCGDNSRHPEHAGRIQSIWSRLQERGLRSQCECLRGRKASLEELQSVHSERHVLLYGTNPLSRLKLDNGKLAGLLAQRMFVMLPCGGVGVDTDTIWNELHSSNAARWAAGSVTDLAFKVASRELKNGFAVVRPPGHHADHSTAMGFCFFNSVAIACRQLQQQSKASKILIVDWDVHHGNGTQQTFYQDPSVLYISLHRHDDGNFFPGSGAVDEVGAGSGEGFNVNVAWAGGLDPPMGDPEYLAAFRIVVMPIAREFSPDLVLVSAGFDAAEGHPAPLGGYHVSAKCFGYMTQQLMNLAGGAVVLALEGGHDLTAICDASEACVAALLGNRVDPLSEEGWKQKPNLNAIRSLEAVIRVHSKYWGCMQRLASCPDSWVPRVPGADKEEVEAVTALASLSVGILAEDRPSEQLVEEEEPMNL
Experiment: Fluorometric HDAC inhibition assay, HDAC7
Format: biochemical
Conditions: purified human protein; Boc-[Lys-TFA]-AMC substrate 10 μM; 15 min preincubation
Description: Large-scale expression of recombinant human HDACs was carried out as described previously.[32],[37] Briefly, HEK293/T17 cells were transiently transfected with expression pMM222 plasmids comprising N-terminally tagged (TwinStrep-FLAG-HALO tag; Figure S1) HDAC genes using linear poly(ethyleneimine) (PEI, Polysciences Inc.). Cells were harvested three days post-transfection, and cell pellets were resuspended in the lysis buffer (100 mM Tris-HCl, 10 mM NaCl, 5 mM KCl, 2 mM MgCl2, and 10% glycerol at pH 8.0). Cells were disrupted by sonication, cell lysates were cleared by centrifugation, and soluble fusion proteins were first purified by Streptactin affinity chromatography (IBA). For all HDACs but HDACs 1, 10, and 11, the N-terminal tag was cleaved off overnight by the addition of TEV protease (10:1 HDAC/TEV ratio). Size-exclusion chromatography on a Superose 6 column (GE Healthcare Bio-Sciences; running buffer 30 mM HEPES, 140 mM NaCl, 10 mM KCl, 3% glycerol, and 0.25 mM TCEP) was used as the final purification step for all HDAC constructs.
Optimized fluorometric assays were used to determine inhibition constants of studied compounds against individual HDAC isoforms as described previously.[32] Briefly, reactions were performed in the activity buffer comprising 50 mM HEPES, 140 mM NaCl, and 10 mM KCl at pH 7.4 supplemented with 1 mg mL^–1 bovine serum albumin (BSA), 1 mM tris(2-carboxyethyl)phosphine (TCEP), 10 μM substrates, and optimized concentrations of HDACs. The Ac-Gly-Ala-[Lys-Ac]-7-amino-methylcoumarylamide (AMC) substrate was used to profile HDACs 1, 2, 3, and 6; Boc-[Lys-TFA]-7-amino-methylcoumarylamide was used for HDACs 4, 5, 7, 8, and 9 (both substrates: Bachem); fluorescein-labeled N8-acetylspermidine was used for HDAC10;[32] and an internally quenched TNFα-derived peptide derivative was used for HDAC11.[39] Deacetylation reactions were monitored either by high-performance liquid chromatography (HPLC) (HDAC10) or by quantification of released AMC (λex/λem = 365/440 nm) using a CLARIOstar plate reader (BMG Labtech GmbH).

Compound | IC50
CS(=O)(=O)N(Cc1ccc(C(=O)NN)cn1)c1cccc(Cl)c1 [compound 4] | > 20 µM
CS(=O)(=O)N(Cc1ccc(-c2nnc(C(F)F)o2)cn1)c1cccc(Cl)c1 [compound 8] | > 20 µM
CS(=O)(=O)N(Cc1ccc(-c2nnc(C(F)(F)F)o2)cn1)c1cccc(Cl)c1 [compound 7] | > 20 µM
